Source: PubChem BioAssay (NCI)
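Values below derive from 48-hour exposures of cells grown in 96-well plates, with endpoints linearly interpolated between the two concentrations bracketing the appropriate inhibition level. GI50 = concentration required for 50% inhibition of growth. TGI marks complete inhibition of growth.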

Legend:
Test in all cases: NCI tumour cell line growth inhibition, 48 h
[1] = system: EKVX NSCLC
[2] = system: NCI-H226 lung
[3] = system: U251 CNS
[4] = system: RXF 393 renal
[5] = system: HOP-92 NSCLC
[6] = system: T-47D breast
[7] = system: NCI-H23 lung
[8] = system: RPMI-8226 leukemia
[9] = system: K-562 leukemia
[10] = system: NCI-H460 lung
[11] = system: HCC-2998 colon
[12] = system: ACHN renal
[13] = system: MOLT-4 leukemia
[14] = system: TK-10 renal
[15] = system: SNB-19 CNS
[16] = system: HT29 colon
[17] = system: OVCAR-5 ovarian
[18] = system: MDA-MB-231 breast
[19] = system: SF-268 CNS
[20] = system: SW-620 colon
[21] = system: SK-OV-3 ovarian
[22] = system: OVCAR-3 ovarian
[23] = system: DU-145 prostate
[24] = system: LOX IMVI melanoma
[25] = system: SN12C renal
[26] = system: NCI/ADR-RES ovarian
[27] = system: SK-MEL-28 melanoma
[28] = system: A549 NSCLC
[29] = system: HOP-62 NSCLC
[30] = system: OVCAR-4 ovarian
[31] = system: HCT-15 colon
[32] = system: NCI-H522 lung
[33] = system: SF-539 CNS
[34] = system: UACC-257 melanoma
[35] = system: IGROV1 ovarian
[36] = system: SF-295 CNS
[37] = system: HCT-116 colon
[38] = system: MCF7 breast
[39] = system: HS 578T breast
[40] = system: SR leukemia
[41] = system: CCRF-CEM leukemia
[42] = system: PC-3 prostate
[43] = system: UACC-62 melanoma
[44] = system: SNB-75 CNS
[45] = system: KM12 colon
[46] = system: HL-60(TB) leukemia
[47] = system: A498 renal
[48] = system: MALME-3M melanoma
[49] = system: BT-549 breast
[50] = system: COLO 205 colon
[51] = system: SK-MEL-5 melanoma
[52] = system: MDA-MB-435
[53] = system: OVCAR-8 ovarian
[54] = system: UO-31 renal
[55] = system: 786-0 renal
[56] = system: M14 melanoma

For N=C(N)N=Nc1ccc(NN=C(N)N)c2c1ncc1c2nc2sccn21, the GI50 [1] was 21.6 µM, the TGI [1] was 45.8 µM and the GI50 [2] was 32.3 µM. For the same molecule, the TGI [2] was > 100 µM, the GI50 [3] was 23.2 µM and the TGI [3] was > 100 µM. The GI50 [4] was 8.98 µM, the TGI [4] was 34.6 µM and the GI50 [5] was 25.5 µM. For the same molecule, the TGI [5] was 65.4 µM, the GI50 [6] was > 100 µM and the TGI [6] was > 100 µM. For the same molecule, the GI50 [7] was 32.1 µM, the TGI [7] was > 100 µM and the GI50 [8] was 14 µM. For the same molecule, the TGI [8] was 91.2 µM, the GI50 [9] was 31.4 µM and the TGI [9] was > 100 µM. For the same molecule, the GI50 [10] was 24 µM, the TGI [10] was > 100 µM and the GI50 [11] was 65.7 µM. The TGI [11] was > 100 µM, the GI50 [12] was 22.3 µM and the TGI [12] was 51.3 µM. For the same molecule, the GI50 [13] was 80.3 µM, the TGI [13] was > 100 µM and the GI50 [14] was 18 µM. The TGI [14] was 35.5 µM, the GI50 [15] was > 100 µM and the TGI [15] was > 100 µM. For the same molecule, the GI50 [16] was 55.6 µM, the TGI [16] was > 100 µM and the GI50 [17] was 27.8 µM. It also gave a TGI [17] of 72.1 µM, a GI50 [18] of 33 µM and a TGI [18] of 66.6 µM. For the same molecule, the GI50 [19] was 10.7 µM, the TGI [19] was 35.9 µM and the GI50 [20] was 23.9 µM. For the same molecule, the TGI [20] was 67.8 µM, the GI50 [21] was 93.4 µM and the TGI [21] was > 100 µM. For the same molecule, the GI50 [22] was 18.8 µM, the TGI [22] was > 100 µM and the GI50 [23] was 15.3 µM. The TGI [23] was 44.3 µM, the GI50 [24] was 21.1 µM and the TGI [24] was > 100 µM. For the same molecule, the GI50 [25] was 36.4 µM, the TGI [25] was > 100 µM and the GI50 [26] was 28.6 µM. For the same molecule, the TGI [26] was > 100 µM, the GI50 [27] was 30.6 µM and the TGI [27] was 95 µM. For the same molecule, the GI50 [28] was 42.7 µM, the TGI [28] was > 100 µM and the GI50 [29] was 29.6 µM. For the same molecule, the TGI [29] was > 100 µM, the GI50 [30] was 22.6 µM and the TGI [30] was 74.2 µM. It also gave a GI50 [31] of 16.7 µM, a TGI [31] of 59.3 µM and a GI50 [32] of 22.1 µM. The TGI [32] was > 100 µM, the GI50 [33] was 21 µM and the TGI [33] was 94.8 µM. It also gave a GI50 [34] of 18.6 µM, a TGI [34] of 40.6 µM and a GI50 [35] of 8.7 µM. The TGI [35] was > 100 µM, the GI50 [36] was 32 µM and the TGI [36] was > 100 µM. For the same molecule, the GI50 [37] was 25.8 µM, the TGI [37] was > 100 µM and the GI50 [38] was 23 µM. The TGI [38] was > 100 µM, the GI50 [39] was 18.9 µM and the TGI [39] was 63.4 µM. For the same molecule, the GI50 [40] was > 100 µM, the TGI [40] was > 100 µM and the GI50 [41] was 20.8 µM. The TGI [41] was > 100 µM, the GI50 [42] was 27 µM and the TGI [42] was 99.5 µM. The GI50 [43] was 21.3 µM, the TGI [43] was 57.2 µM and the GI50 [44] was 25.9 µM. For the same molecule, the TGI [44] was > 100 µM, the GI50 [45] was 21.9 µM and the TGI [45] was > 100 µM. For the same molecule, the GI50 [46] was 73.6 µM, the TGI [46] was > 100 µM and the GI50 [47] was 24.2 µM. It also gave a TGI [47] of 80 µM, a GI50 [48] of 21.9 µM and a TGI [48] of 45.9 µM. For the same molecule, the GI50 [49] was 16.5 µM, the TGI [49] was 32.9 µM and the GI50 [50] was 40.6 µM. For the same molecule, the TGI [50] was > 100 µM, the GI50 [51] was 15.7 µM and the TGI [51] was 37.7 µM. The GI50 [52] was 19.5 µM, the TGI [52] was 52.1 µM and the GI50 [53] was 27.3 µM. For the same molecule, the TGI [53] was > 100 µM, the GI50 [54] was 23.7 µM and the TGI [54] was > 100 µM. The GI50 [55] was 29.2 µM, the TGI [55] was > 100 µM and the GI50 [56] was 22.9 µM. For the same molecule, the TGI [56] was 80 µM.
